In patent US9556378B2, “Chelating agent precursors, fluids containing them, and their use” (AKZO NOBEL CHEMICALS INTERNATIONAL B.V., priority 2011, dated 2017):
Each block holds one compound with its values, some of them ahead of it.

Columns and labels:
Assay type in all cases: physicochemical
[1] = Viscosity of chelate esters, Brookfield DV-II viscometer, spindle 25; conditions: 25° C.
Protocol: (§1) In addition, where possible, the following physical properties of the chelate esters were determined at 25° C.: • Viscosity in mPas • Surface tension in mN/m • Density in kg/m^3
(§2) The viscosity was determined with a Brookfield DV-II viscometer equipped with spindle 25, which is suitable to measure high-viscous liquids. The principle of operation of the DV-II is to drive a specific spindle which is immersed in the test fluid. The viscous drag of the fluid against the spindle is measured by a calibrated spring. The viscosity is calculated from the rotational speed, type, and the torque of the spindle. In addition, the surface tension was determined with a bubble pressure tensiometer. The tensiometer produces gas bubbles at a constant rate and blows them through a capillary which is submerged in the sample liquid. The pressure (P) inside of the bubble continues to increase and the maximum value is obtained when the bubble has the completely hemispherical shape whose radius corresponds exactly to the radius of the capillary.

[2] = Surface tension, bubble pressure tensiometer; conditions: 25° C.
Protocol: as §1, §2
By following each step of the bubble formation, change of bubble radius, and the corresponding pressure, the dynamic surface tension can be determined using the Laplace equation in the reduced form for spherical bubble shape within the liquid, equation: σ=(ΔPmax·Rcap)/2 where: σ=dynamic surface tension ΔPmax=maximum pressure drop Rcap=radius of capillary

[3] = Density, gravimetric (0.50 ml in weighted pipette); conditions: for Density: 25° C.; for density compared with water (in words): not measurable for the highly viscous esters
Protocol: as §1
The density was determined gravimetrically by slowly sucking up exactly 0.50 ml of the chelate ester in a weighted pipette and by weighing the total weight of the pipette and the chelate-ester, the weight of 0.50 ml of chelate ester could be determined.

[4] = Solubility of chelate ester in water
[5] = Hydrolysis rate of chelate esters followed by Fe-TSV (released chelate acid); conditions: for rate of hydrolysis (in words): 20 wt % ester in demi water, 90° C., Fe-TSV, FIG. 1-3; for effect of pH on hydrolysis rate (release of chelating agent): pH adjusted with caustic to 7 versus ~1, FIG. 4; for solubility of the chelate acid compared with EDTA acid: observed on hydrolysis of the esters, solid EDTA is formed
Protocol: (§3) In several experiments the hydrolysis of the chelate esters of Example 2 was investigated. First, the hydrolysis rate of the chelate esters was determined with ^1H and ^13C-NMR. […] Secondly, the hydrolysis rate was followed by determination of the Fe-TSV, which gives the concentration of the released chelate acid. To determine the Fe-TSV the chelate ester was added to demi water in a 5 ml glass vial, resulting in an ester concentration of 20 wt %. The mixture was continuously homogenized by shaking and a treatment in the ultrasonic bath. Subsequently, the vial was placed in a stove at 90° C. to simulate well conditions. After certain time intervals a sample was taken and analyzed on Fe-TSV. The percentage of hydrolysis is defined by:
The calculated chelate concentration at the start is calculated from the intake of the ester. The value is corrected for the purity as measured by NMR, assuming a 100% conversion of the corresponding chelate.

[6] = Hydrolysis rate of chelate esters by 1H and 13C-NMR; conditions: 70° C.
Protocol: as §3, with “Fe-TSV.” for “Fe-TSV. The percentage of hydrolysis is defined by:”

[7] = pH of the ester in water
[8] = 1 wt % / 1% slurry in water, product as formed (acidic)

- Soluble in water (pH = 0.5) [4]: Yes
- time to almost complete hydrolysis [6]: ~2 days
- rate of hydrolysis (in words) [5]: nearly the same speed of hydrolysis
Compound: COC(=O)CCC(C(=O)OC)N(CC(=O)OC)CC(=O)OC (stereo not shown) [GLDA 4 methyl ester, GLDA-tetramethyl ester]

- Viscosity [1]: 178 mPas
- Surface tension [2]: 69.2 mN/m
- Density [3]: 1.11 g/mL
- Soluble in water (pH = 0.5) [4]: no (2 phases)
- Soluble in water (pH = ~7) [4]: no (2 phases)
- effect of pH on hydrolysis rate (release of chelating agent) [5]: decreased slightly with increasing pH
Compound: CCCOC(=O)CCC(C(=O)OCCC)N(CC(=O)OCCC)CC(=O)OCCC (stereo not shown) [GLDA 4 propyl ester, GLDA-tetrapropyl ester]

- pH ([7]; 1% slurry in water, less acidic product after treatment with 1 eq Na2CO3): ~9
- pH [7, 8]: 1.8
Compound: CCOC(=O)CCC(C(=O)OCC)N(CC(=O)OCC)CC(=O)OCC (stereo not shown) [GLDA tetra ethyl ester]

- solubility of the chelate acid compared with EDTA acid [5]: significantly higher
Compound: O=C(O)CC[C@@H](C(=O)O)N(CC(=O)O)CC(=O)O [GLDA, glutamic acid N,N-diacetic acid]

- Soluble in water (pH = 0.5) [4]: Yes
- time to almost complete hydrolysis [6]: ~2 days
- rate of hydrolysis (in words) [5]: nearly the same speed of hydrolysis
Compound: COC(=O)CN(CC(=O)OC)C(C)C(=O)OC (stereo not shown) [MGDA 3 methyl ester, MGDA-trimethyl ester]

- solubility of the chelate acid compared with EDTA acid [5]: significantly higher
Compound: CC(C(=O)O)N(CC(=O)O)CC(=O)O (stereo not shown) [MGDA, methylglycine N,N-diacetic acid]

- pH [7, 8]: 1.8
Compound: GLDA Mono Ethyl Ester

Further lines, the compound ahead of its results:

Compound: CCCCOC(=O)CN(CCN(CC(=O)OCCCC)CC(=O)OCCCC)CC(=O)OCCCC [EDTA 4 butyl ester, EDTA-tetrabutyl ester, reference compound]
- Viscosity [1]: 8,100 mPas
- Surface tension [2]: 52.6 mN/m
- Density [3]: > 1 g/mL
- density compared with water (in words) [3]: clearly higher than water
- Soluble in water (pH = 0.5) [4]: no (2 phases)

Compound: COC(=O)CN(CCN(CC(=O)OC)CC(=O)OC)CC(=O)OC [EDTA 4 methyl ester, EDTA-tetramethyl ester, reference compound]
- Soluble in water (pH = 0.5) [4]: Yes
- Soluble in water (pH = ~7) [4]: Yes
- rate of hydrolysis (in words) [5]: hydrolyzed much faster than the corresponding GLDA or MGDA-methyl ester

Compound: CCCOC(=O)CN(CCN(CC(=O)OCCC)CC(=O)OCCC)CC(=O)OCCC [EDTA 4 propyl ester, EDTA-tetrapropyl ester, reference compound]
- Viscosity [1]: 260,000 mPas
- Surface tension [2]: 51.3 mN/m
- Density [3]: > 1 g/mL
- density compared with water (in words) [3]: clearly higher than water
- Soluble in water (pH = 0.5) [4]: Yes
- Soluble in water (pH = ~7) [4]: no (2 phases)
- effect of pH on hydrolysis rate (release of chelating agent) [5]: decreased slightly with increasing pH

Compound: CCCCOCCOC(=O)CCC(C(=O)OCCOCCCC)N(CC(=O)OCCOCCCC)CC(=O)OCCOCCCC (stereo not shown) [GLDA 4 EGMBE, GLDA-tetraEMGBE ester]
- Viscosity [1]: 67 mPas
- Surface tension [2]: 47.8 mN/m
- Density [3]: 1.06 g/mL
- Soluble in water (pH = 0.5) [4]: no (2 phases)

Compound: CCCCOC(=O)CCC(C(=O)OCCCC)N(CC(=O)OCCCC)CC(=O)OCCCC (stereo not shown) [GLDA 4 butyl ester, GLDA-tetrabutyl ester]
- Viscosity [1]: 38 mPas
- Surface tension [2]: 41.3 mN/m
- Density [3]: 1.04 g/mL
- Soluble in water (pH = 0.5) [4]: no (2 phases)
